These results are taken from patent publication US9765075B2, “Substituted bridged urea analogs as sirtuin modulators” (GLAXOSMITHKLINE LLC, priority 2013, dated 2017).

The test deals with T1, SIRT1 (Homo sapiens, UniProt Q96EB6).
T1 sequence (Q96EB6 1-747): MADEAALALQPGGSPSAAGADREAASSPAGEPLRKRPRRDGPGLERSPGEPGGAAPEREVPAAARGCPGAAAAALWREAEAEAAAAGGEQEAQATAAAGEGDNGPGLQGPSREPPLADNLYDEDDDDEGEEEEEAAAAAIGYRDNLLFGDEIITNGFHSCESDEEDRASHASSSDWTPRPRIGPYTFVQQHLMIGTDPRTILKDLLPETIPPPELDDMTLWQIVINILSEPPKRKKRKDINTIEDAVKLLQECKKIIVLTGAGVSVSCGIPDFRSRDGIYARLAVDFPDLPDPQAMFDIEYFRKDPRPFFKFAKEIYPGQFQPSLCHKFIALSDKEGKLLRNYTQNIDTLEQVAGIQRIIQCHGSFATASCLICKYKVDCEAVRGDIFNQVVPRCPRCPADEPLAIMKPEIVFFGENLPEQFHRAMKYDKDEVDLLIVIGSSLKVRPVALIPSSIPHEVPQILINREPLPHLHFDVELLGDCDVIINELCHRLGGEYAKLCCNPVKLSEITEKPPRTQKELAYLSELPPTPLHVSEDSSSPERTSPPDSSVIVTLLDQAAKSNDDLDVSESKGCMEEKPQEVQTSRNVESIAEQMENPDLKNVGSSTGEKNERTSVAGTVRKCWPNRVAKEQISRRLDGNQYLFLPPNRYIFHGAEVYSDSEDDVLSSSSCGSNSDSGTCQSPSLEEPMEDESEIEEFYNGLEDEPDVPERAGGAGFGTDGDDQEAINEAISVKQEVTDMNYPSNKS
In words: Trp mass spectrometry assay (SIRT1 activation). Particulars: for Emax: percent maximum fold activation of SIRT1, read-out: Tryp % Fold Act. The format is biochemical. The method in brief:
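N-His-tagged SIRT1 (10 nM), expressed in E. coli, was incubated with 0.5 μM Ac-RHKK(Ac)W-NH2 peptide and 120 μM NAD+ for 25 min at 25 °C in HEPES pH 7.5 with […]. The reaction was stopped with formic acid and O-acetyl-ADP-ribose or deacetylated peptide was quantified by mass spectrometry. Results are given as EC1.5 and percent maximal activation relative to DMSO control.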

Where [1] appears, read: concentration of test compound that results in 150% activation of SIRT1, Trp peptide substrate.
The mark [2] stands for this setting: Trp mass spectrometry assay, EC1.5 = concentration giving 150% activation of SIRT1.
The mark [3] stands for this setting: Trp mass spectrometry assay, EC1.5 = concentration of test compound that results in 150% activation of SIRT1.

Structures are written as SMILES. Like-named read-outs stand apart in the source and are kept apart here. Where only a bound is given, the exact number is not on record here.

`O=C(Nc1cc(Br)cc(-c2cnco2)c1)N1c2nc(-c3cccc(C(F)(F)F)c3)ccc2N2CC[C@H]1C2` [Example 562]: under setting [1], the “Tryp AVG EC1.5 (μM)” value is on record as “A (EC1.5<1 μM)”. Besides, the Emax (Trp peptide substrate) was at least 150%. In the case of `O=C(Nc1ccccn1)N1c2cc(-c3cccc(C(F)(F)F)c3)ccc2N2CC[C@H]1C2` [Example 785], under setting [2], the “Tryp AVG EC1.5 (μM)” value is on record as “C (EC1.5>25 μM)”. Further, the Emax (Trp mass spectrometry assay) is below 150%.

`O=C(Nc1cccc(-c2cnco2)c1)N1c2nc(-c3cncc(C(F)(F)F)c3)ccc2N2C[C@@H](O)[C@H]1C2` [Example 709]: under setting [2], the “Tryp AVG EC1.5 (μM)” value is reported as “A (EC1.5<1 μM)”. For the same compound, the Emax (Trp mass spectrometry assay) was at least 150%. Regarding `Cn1cc(NC(=O)N2c3nc(-c4cccc(OC(F)(F)F)c4)ccc3N3CC[C@H]2C3)cn1` [Example 167], the “Tryp AVG EC1.5 (μM)” value under setting [3] is “B (EC1.5 1-25 μM)”. Under “Trp mass spectrometry assay”, the Emax was at least 150%. For the compound `O=C(Nc1cccc(-c2ccsc2)n1)N1c2nc(-c3cccc(C(F)(F)F)c3)ccc2N2CC[C@H]1C2` [Example 653], the “Tryp AVG EC1.5 (μM)” value under setting [2] is reported as “A (EC1.5<1 μM)”. Also, the Emax (Trp mass spectrometry assay) was at least 150%. Turning to `O=C(Nc1cccc(-c2cnco2)c1)N1c2nc(N3CCCC(C(F)(F)F)C3)ccc2N2CCC[C@H]1C2` (stereo partly drawn) [Example 285], under setting [1], the “Tryp AVG EC1.5 (μM)” value was “A (EC1.5<1 μM)”. Moreover, where the note is “Trp peptide substrate”, the Emax is at least 150%. For `O=C(Nc1cccc(-c2cnco2)c1)N1c2nc(-c3cccc(C(F)(F)F)c3)ccc2N2CC[C@@H]1C2` [Example 233], the “Tryp AVG EC1.5 (μM)” value under setting [1] is given as “A (EC1.5<1 μM)”. The Emax (Trp peptide substrate) was at least 150%. Take `O=C(Nc1cncc(F)c1)N1c2nc(-c3cccc(C(F)(F)F)c3)ccc2N2CC[C@H]1C2` [Example 20]: the Emax (Trp mass spectrometry assay) is at least 150%. For `COc1cc(NC(=O)N2c3nc(-c4cncc(Cl)c4)ccc3N3CCC2CC3)ncn1` [Example 552], under setting [1], the “Tryp AVG EC1.5 (μM)” value is recorded as “C (EC1.5>25 μM)”. Besides, the Emax (Trp peptide substrate) is below 150%. As for `O=C(Nc1cncc(OCC(O)CO)n1)N1c2nc(-c3cccc(Cl)c3)ccc2N2CC[C@H]1C2` (stereo partly drawn) [Example 63], the Emax (Trp mass spectrometry assay) is at least 150%. For the compound `Cc1ccc(-c2ccc3c(n2)N(C(=O)Nc2cccnc2)[C@H]2CCCN3C2)cn1` [Example 514], under setting [1], the “Tryp AVG EC1.5 (μM)” value is on record as “B (EC1.5 1-25 μM)”. Further, where the note is “Trp peptide substrate”, the Emax was at least 150%.

On to `N#Cc1cccc(-c2ccc3c(n2)N(C(=O)Nc2ccncc2F)[C@H]2CCN3C2)c1` [Example 147], for which the “Tryp AVG EC1.5 (μM)” value under setting [3] was “B (EC1.5 1-25 μM)”. Besides, the Emax (Trp mass spectrometry assay) is at least 150%. Turning to `CS(=O)(=O)c1cccc(-c2ccc3c(n2)N(C(=O)Nc2cnccn2)[C@H]2CCN3C2)c1` [Example 415], the “Tryp AVG EC1.5 (μM)” value under setting [1] is reported as “A (EC1.5<1 μM)”. Further, the Emax (Trp peptide substrate) is at least 150%. For `Cc1cccnc1NC(=O)N1c2nc(-c3cccc(C(F)(F)F)c3)ccc2N2CC[C@H]1C2` [Example 14], the Emax (Trp mass spectrometry assay) is below 150%. For the compound `COc1nccc(NC(=O)N2c3nc(-c4cccc(N5CCCC5)c4)ccc3N3CC[C@H]2C3)n1` [Example 188], the “Tryp AVG EC1.5 (μM)” value under setting [3] is listed as “B (EC1.5 1-25 μM)”. Besides, the Emax (Trp mass spectrometry assay) was at least 150%. As to `O=C(Nc1ccc(F)cn1)N1c2nc(-c3cccc(N4CC[C@H](F)C4)c3)ccc2N2CC[C@H]1C2` [Example 270], the “Tryp AVG EC1.5 (μM)” value under setting [1] was “B (EC1.5 1-25 μM)”. In addition, the Emax (Trp peptide substrate) is at least 150%. The like results for `O=C(Nc1ccccn1)N1c2nc(-c3cccc(C(F)(F)F)c3F)ccc2N2CC[C@H]1C2` [Example 334] were, in that order, “B (EC1.5 1-25 μM)” and at least 150%. For `CN(C)c1cccc(-c2ccc3c(n2)N(C(=O)Nc2cnccn2)[C@@H]2CCCN3C2)c1` [Example 266] the same measures were “B (EC1.5 1-25 μM)” and at least 150%. `O=C(Nc1ccncn1)N1c2nc(C3CCCC(C(F)(F)F)C3)ccc2N2CC[C@H]1C2` (stereo partly drawn) [Example 98]: under setting [3], the “Tryp AVG EC1.5 (μM)” value is “B (EC1.5 1-25 μM)”. The Emax (Trp mass spectrometry assay) is at least 150%. Take `CC(C)(C)OC(=O)NCc1cccc(-c2ccc3c(n2)N(C(=O)Nc2ccncc2)[C@H]2CCCN3C2)c1` [Example 795]: under setting [2], the “Tryp AVG EC1.5 (μM)” value was “B (EC1.5 1-25 μM)”. Besides, the Emax (Trp mass spectrometry assay) was at least 150%. For `O=C(Nc1ccncn1)N1c2nc(-c3cccc(Cl)c3)ccc2N2CC[C@@H]1C2` [Example 234], under setting [1], the “Tryp AVG EC1.5 (μM)” value was “B (EC1.5 1-25 μM)”. Besides, for the setting “Trp peptide substrate”, the Emax was at least 150%. The like results for `O=C(Nc1cnccn1)N1c2nc(-c3cncc(C(F)(F)F)c3)ccc2N2CCC[C@H]1C2` [Example 452] were, in that order, “A (EC1.5<1 μM)” and at least 150%. For `O=C(Nc1ccc(F)cn1)N1c2nc(-c3ccnc(N4CCC(F)(F)C4)c3)ccc2N2CC[C@H]1C2` [Example 425] the same measures were “A (EC1.5<1 μM)” and at least 150%. Consider `O=C(CCCCCNC(=O)c1ccc(-c2c3ccc(=O)cc-3oc3cc(O)ccc23)c(C(=O)O)c1)NCc1ccc(NC(=O)N2c3nc(-c4cccc(C(F)(F)F)c4)ccc3N3CCC[C@H]2C3)cc1` [546 (3)], for which the “Tryp AVG EC1.5 (μM)” value under setting [1] is reported as “B (EC1.5 1-25 μM)”. For the same compound, the Emax (Trp peptide substrate) is below 150%.

`CN(C)c1ccc(-c2ccc3c(n2)N(C(=O)Nc2cnccn2)[C@H]2CCN3C2)cn1` [Example 458]: under setting [1], the “Tryp AVG EC1.5 (μM)” value is listed as “B (EC1.5 1-25 μM)”. The Emax (Trp peptide substrate) is at least 150%. On to `Cn1cc(NC(=O)N2c3nc(-c4cccc(C(F)(F)F)c4)ccc3N3CCC[C@H]2C3)cn1` [Example 40], for which the Emax (Trp mass spectrometry assay) is at least 150%. As to `O=C(Nc1ccccn1)N1c2nc(-c3ccnc(N4CCC(F)(F)C4)c3)ccc2N2CC[C@H]1C2` [Example 388], the “Tryp AVG EC1.5 (μM)” value under setting [1] is listed as “A (EC1.5<1 μM)”. Where the note is “Trp peptide substrate”, the Emax was at least 150%.

On to `Cc1nc(NC(=O)N2c3nc(-c4cccc(N(C)C)c4)ccc3N3CCC[C@H]2C3)sc1C` [Example 383], for which, under setting [1], the “Tryp AVG EC1.5 (μM)” value is recorded as “A (EC1.5<1 μM)”. Also, the Emax (Trp peptide substrate) was at least 150%. For `O=C(Nc1ccccn1)N1c2nc(-c3cncc(F)c3)ccc2N2CCC1CC2` [Example 570] the same measures were “B (EC1.5 1-25 μM)” and at least 150%. The like results for `O=C(Nc1cccnc1)N1c2nc(N3CCCC(C(F)(F)F)C3)ccc2N2CCC[C@@H]1C2` (stereo partly drawn) [Example 302] were, in that order, “B (EC1.5 1-25 μM)” and at least 150%.

With `O=C(Nc1cncnc1)N1c2nc(-c3cccc(C(F)(F)F)c3)ccc2N2CCC[C@H]1C2` [Example 38], the Emax (Trp mass spectrometry assay) was at least 150%. As for `O=C(Nc1cncc(F)c1)N1c2nc(-c3cccc(N4CCCC4)c3)ccc2N2CC[C@H]1C2` [Example 198], the “Tryp AVG EC1.5 (μM)” value under setting [3] is on record as “B (EC1.5 1-25 μM)”. The Emax (Trp mass spectrometry assay) was at least 150%. With `O=C(Nc1ccncc1)N1c2nc(-c3cccc(C(F)(F)F)c3)ccc2N2CCC[C@H]1C2` [Example 821], the “Tryp AVG EC1.5 (μM)” value under setting [2] is listed as “A (EC1.5<1 μM)”. In addition, the Emax (Trp mass spectrometry assay) was at least 150%. As to `O=C(Nc1cccnc1)N1c2nc(-c3cccc(N4CCOCC4)c3)ccc2N2CCC[C@H]1C2` [Example 538], the “Tryp AVG EC1.5 (μM)” value under setting [1] is “A (EC1.5<1 μM)”. For the same compound, the Emax (Trp peptide substrate) was at least 150%.

In the case of `O=C(Nc1ccncc1F)N1c2nc(-c3ccnc(C(F)(F)F)c3)ccc2N2CC[C@H]1C2` [Example 151], the “Tryp AVG EC1.5 (μM)” value under setting [3] is “A (EC1.5<1 μM)”. For the same compound, for the setting “Trp mass spectrometry assay”, the Emax was at least 150%. In the case of `O=C(Nc1cccc(-c2cnco2)c1)N1c2nc(-c3cccc(Cl)c3)ccc2N2CCC1CC2` [Example 497], the “Tryp AVG EC1.5 (μM)” value under setting [1] was “A (EC1.5<1 μM)”. Besides, where the note is “Trp peptide substrate”, the Emax is at least 150%. In the case of `O=C(Nc1ccccn1)N1c2nc(-c3ccnc(C(F)(F)F)c3)ccc2N2CC[C@H]1C2` [Example 142], the “Tryp AVG EC1.5 (μM)” value under setting [3] is “A (EC1.5<1 μM)”. In addition, the Emax (Trp mass spectrometry assay) was at least 150%. On to `CCCn1cc(-c2ccc3c(n2)N(C(=O)Nc2cccnc2)[C@H]2CCN3C2)cn1` [Example 487], for which the “Tryp AVG EC1.5 (μM)” value under setting [1] is recorded as “B (EC1.5 1-25 μM)”. Besides, where the note is “Trp peptide substrate”, the Emax was at least 150%.

On to `CC(C)(C)OC(=O)NCc1ccc(NC(=O)N2c3nc(-c4cccc(C(F)(F)F)c4)ccc3N3CCC[C@H]2C3)cc1` [Example 445], for which, under setting [1], the “Tryp AVG EC1.5 (μM)” value is “A (EC1.5<1 μM)”. Moreover, the Emax (Trp peptide substrate) is at least 150%. The like results for `COc1cc(NC(=O)N2c3nc(-c4cncc(Cl)c4)ccc3N3CC[C@H]2C3)ncn1` [Example 250] were, in that order, “A (EC1.5<1 μM)” and at least 150%. The like results for `O=C(Nc1cnccn1)N1c2nc(-c3cccc(N4CCOCC4)c3)ccc2N2CCC[C@H]1C2` [Example 560] were, in that order, “B (EC1.5 1-25 μM)” and at least 150%.

As to `Cc1csc(NC(=O)N2c3nc(-c4cccc(C(F)(F)F)c4)ccc3N3CC[C@H]2C3)n1` [Example 56], under “Trp mass spectrometry assay”, the Emax is at least 150%.
